Test results taken from PubChem BioAssay AID248 (DTP/NCI, 2004).
Values joined by “and” are separate entries in the source; they are usually repeats but may differ in a detail not shown here. Equal entries are not always repeated. Inconclusive results and toxic doses are left out. Rule as the data show it: active = T/C of 150% or more; inactive = T/C below 125%.

Tested on: L1210 leukemia ip in BDF1 mice, survival T/C
Test: NCI In Vivo Anticancer Drug Screen. Data for tumor model L1210 Leukemia (intraperitoneal) in B6D2F1 (BDF1) mice
Conditions: endpoint: mean survival time, higher = longer survival
How it was run: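 Tumor cells were implanted, animals were treated, and survival was followed. The result divides the treated measurement by the vehicle-control measurement.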

[1] = dose: 100.0 mg/kg/injection, schedule: Q01DX009 (ip), vehicle: saline with Tween-80
[2] = dose: 200.0 mg/kg/injection, schedule: Q01DX009 (ip), vehicle: saline with Tween-80
[3] = dose: 400.0 mg/kg/injection, schedule: Q01DX009 (ip), vehicle: saline with Tween-80
[4] = dose: 50.0 mg/kg/injection, schedule: Q01DX009 (ip), vehicle: saline with Tween-80
[5] = dose: 100.0 mg/kg/injection, schedule: Q04DX003 (ip), vehicle: saline with Tween-80
[6] = dose: 200.0 mg/kg/injection, schedule: Q04DX003 (ip), vehicle: saline with Tween-80
[7] = dose: 400.0 mg/kg/injection, schedule: Q04DX003 (ip), vehicle: saline with Tween-80
[8] = dose: 100.0 mg/kg/injection, schedule: Q04DX003 (ip), vehicle: Klucel (hydroxypropylcellulose) (HPC)
[9] = dose: 200.0 mg/kg/injection, schedule: Q04DX003 (ip), vehicle: Klucel (hydroxypropylcellulose) (HPC)
[10] = dose: 400.0 mg/kg/injection, schedule: Q04DX003 (ip), vehicle: Klucel (hydroxypropylcellulose) (HPC)
[11] = dose: 100.0 mg/kg/injection, schedule: Q01DX009 (ip), vehicle: Klucel (hydroxypropylcellulose) (HPC)
[12] = dose: 200.0 mg/kg/injection, schedule: Q01DX009 (ip), vehicle: Klucel (hydroxypropylcellulose) (HPC)
[13] = dose: 400.0 mg/kg/injection, schedule: Q01DX009 (ip), vehicle: Klucel (hydroxypropylcellulose) (HPC)
[14] = dose: 100.0 mg/kg/injection, schedule: Q04DX003 (ip), vehicle: saline
[15] = dose: 200.0 mg/kg/injection, schedule: Q04DX003 (ip), vehicle: saline
[16] = dose: 400.0 mg/kg/injection, schedule: Q04DX003 (ip), vehicle: saline
[17] = dose: 100.0 mg/kg/injection, schedule: Q01DX009 (ip), vehicle: saline
[18] = dose: 200.0 mg/kg/injection, schedule: Q01DX009 (ip), vehicle: saline
[19] = dose: 400.0 mg/kg/injection, schedule: Q01DX009 (ip), vehicle: saline
[20] = dose: 50.0 mg/kg/injection, schedule: Q01DX009 (ip), vehicle: saline

Measured: T/C

O=C(O)/C=C/C(=O)NC1CCCCC1
inactive: [1] 94 % of control | [2] 96 % of control | [3] 98 % of control

CNC(=O)Nc1ccc(S(=O)(=O)Nc2nc(C)cc(C)n2)cc1
inactive: [4] 96 % of control | [1] 96 % of control | [2] 93 % of control

COC(=O)c1ccc(OCCOc2ccc(C(C)(C)CC(C)(C)C)cc2)c([N+](=O)[O-])c1
inactive: [5] 91 % of control | [6] 93 % of control | [7] 91 % of control

Fc1cccc2ccccc12
inactive: [1] 105 % of control | [2] 87 % of control

O=C(NCCCl)Nc1ccccc1-c1ccccc1
inactive: [8] 101 % of control | [9] 95 % of control | [10] 115 % of control

Cc1cccc(C)c1NC(=O)Nc1ccc(S(N)(=O)=O)cc1
inactive: [11] 100 % of control | [8] 101 % of control | [12] 95 % of control and 97 % of control | [9] 94 % of control | [13] 100 % of control and 88 % of control | [10] 92 % of control

CC(C)=CCC/C(C)=C\C=N\NC(N)=S
inactive: dose: 50.0 mg/kg/injection, schedule: Q01DX001 (ip), vehicle: carboxymethylcellulose (CMC) 96 % of control | dose: 100.0 mg/kg/injection, schedule: Q01DX001 (ip), vehicle: carboxymethylcellulose (CMC) 104 % of control | dose: 200.0 mg/kg/injection, schedule: Q01DX001 (ip), vehicle: carboxymethylcellulose (CMC) 104 % of control

CN(C)CCS(=O)(=O)O
inactive: [14] 104 % of control | [15] 104 % of control | [16] 104 % of control

CCCCCCc1c(C(OC)OC)[nH]c(=S)[nH]c1=O
inactive: [11] 91 % of control | [8] 96 % of control | [12] 87 % of control | [9] 98 % of control | [13] 87 % of control | [10] 96 % of control

NCC(=O)Nc1ccc(Cl)cc1C(=O)c1ccc[nH]1
inactive: [1] 93 % of control | [2] 87 % of control | [3] 90 % of control

O=C1NC(=O)C2(CCCCCCC2)N1
inactive: dose: 50.0 mg/kg/injection, schedule: Q01DX009 (ip), vehicle: Klucel (hydroxypropylcellulose) (HPC) 104 % of control | dose: 50.0 mg/kg/injection, schedule: Q04DX003 (ip), vehicle: Klucel (hydroxypropylcellulose) (HPC) 111 % of control | [11] 96 % of control | [8] 99 % of control | [12] 96 % of control | [9] 103 % of control

CC(=O)Nc1nc(-c2ccc([N+](=O)[O-])cc2)c(CCC=O)c(=O)[nH]1
inactive: [11] 88 % of control | [8] 90 % of control | [12] 94 % of control | [9] 98 % of control | [13] 102 % of control | [10] 98 % of control

O=C1c2ccsc2C(=O)c2sccc21
inactive: dose: 100.0 mg/kg/injection, schedule: Q01DX001 (ip), vehicle: saline with Tween-80 103 % of control | dose: 200.0 mg/kg/injection, schedule: Q01DX001 (ip), vehicle: saline with Tween-80 92 % of control

O=C(N/N=C/c1cccc([N+](=O)[O-])c1)c1ccc(Cl)cc1
inactive: [4] 96 % of control | [1] 89 % of control | [2] 89 % of control

CC(=O)NCC1CCC(CNC(C)=O)CC1 (stereo not given)
inactive: [17] 103 % of control | [14] 100 % of control | [18] 107 % of control | [15] 105 % of control | [19] 95 % of control | [16] 100 % of control

O=C1C2CC=C(c3ccccc3)C1CCC2 (stereo not given)
inactive: dose: 75.0 mg/kg/injection, schedule: Q01DX001 (ip), vehicle: other 103 % of control | dose: 150.0 mg/kg/injection, schedule: Q01DX001 (ip), vehicle: other 97 % of control | dose: 300.0 mg/kg/injection, schedule: Q01DX001 (ip), vehicle: other 102 % of control

CN(C)N=Nc1ccc(C(=O)OC2CCC3C4CCC5=CC(=O)CCC5(C)C4CCC23C)cc1 (stereo not given)
inactive: dose: 10.0 mg/kg/injection, schedule: Q01DX009 (ip), vehicle: Klucel (hydroxypropylcellulose) (HPC) 96 % of control | dose: 100.0 mg/kg/injection, schedule: Q04DX002 (ip), vehicle: Klucel (hydroxypropylcellulose) (HPC) 94 % of control | [12] 102 % of control | dose: 200.0 mg/kg/injection, schedule: Q04DX002 (ip), vehicle: Klucel (hydroxypropylcellulose) (HPC) 102 % of control | [13] 97 % of control | dose: 400.0 mg/kg/injection, schedule: Q04DX002 (ip), vehicle: Klucel (hydroxypropylcellulose) (HPC) 91 % of control

CC(C)(C)OC(=O)COc1ccc(NC(=O)COc2ccc(Cl)c(Cl)c2)cc1
inactive: dose: 100.0 mg/kg/injection, schedule: Q01DX001 (ip), vehicle: Klucel (hydroxypropylcellulose) (HPC) 101 % of control | dose: 200.0 mg/kg/injection, schedule: Q01DX001 (ip), vehicle: Klucel (hydroxypropylcellulose) (HPC) 101 % of control | dose: 400.0 mg/kg/injection, schedule: Q01DX001 (ip), vehicle: Klucel (hydroxypropylcellulose) (HPC) 101 % of control

COc1cccc2cc(C3(c4ccccc4)OC(=O)c4ccccc43)ccc12 (stereo not given)
inactive: dose: 100.0 mg/kg/injection, schedule: Q01DX001 (ip), vehicle: other 90 % of control | dose: 200.0 mg/kg/injection, schedule: Q01DX001 (ip), vehicle: other 94 % of control | dose: 400.0 mg/kg/injection, schedule: Q01DX001 (ip), vehicle: other 95 % of control

CCN(CC)CCOc1ccc(C)cc1
inactive: [20] 97 % of control | [17] 89 % of control

CC(C)(C)OC(=O)N/N=C1\CC2CCC1C2 (stereo not given)
inactive: dose: 100.0 mg/kg/injection, schedule: Q04DX003 (ip), vehicle: acetone 95 % of control

CC1(C)OC2C(CNCCCl)OC(OCc3ccccc3)C2O1 (stereo not given)
inactive: dose: 50.0 mg/kg/injection, schedule: Q04DX003 (ip), vehicle: saline 96 % of control | [14] 96 % of control

NNC(=O)c1ccc(I)cc1
inactive: dose: 100.0 mg/kg/injection, schedule: Q04DX002 (ip), vehicle: saline with Tween-80 118 % of control | dose: 200.0 mg/kg/injection, schedule: Q04DX002 (ip), vehicle: saline with Tween-80 118 % of control | dose: 400.0 mg/kg/injection, schedule: Q04DX002 (ip), vehicle: saline with Tween-80 107 % of control

O=C1c2cccc(O)c2C(=O)c2c(O)cccc21
inactive: [17] 94 % of control | [14] 93 % of control | [18] 97 % of control | [15] 97 % of control | [19] 103 % of control | [16] 97 % of control

O=C(Nc1cc([N+](=O)[O-])ccc1F)Oc1ccccc1F
inactive: [8] 102 % of control | [9] 94 % of control | [10] 98 % of control

NC(=O)NN=C1COC(c2ccccc2)OC1 (stereo not given)
inactive: [20] 98 % of control | [17] 89 % of control | [14] 101 % of control | [15] 93 % of control

CSc1nc2cc(C)c(C)cc2[nH]1
inactive: [5] 107 % of control | [6] 94 % of control | [7] 94 % of control

CC(C)(c1ccsc1)c1sccc1C(=O)O
inactive: [5] 100 % of control | [6] 87 % of control | [7] 87 % of control
